What was measured:
[1] = tested on: BDNF; test: BDNF ELISA in brain tissue of scPCP-treated rats; format: in vivo, rat; details: Example 4; 21-day treatment; two different protein concentrations
Method: (§1) Remaining ½ brains (remaining hemispheres) were processed for protein analysis of BDNF using ELISA (quantified in the prefrontal cortex and the dorsal hippocampus) and synaptic markers using Simple Western (quantified in the prefrontal cortex).
(§2) Prefrontal Cortex and dorsal hippocampus were dissected from the frozen brain and homogenised on ice in a 10-fold volume (mg:μL) of buffer (10 mM Trizma base, Sigma-Aldrich; […] sucrose, Sigma-Aldrich; 2 mM EDTA, Sigma-Aldrich; and protease- and phosphatase-inhibitor cocktails, Sigma-Aldrich) buffered to a pH of 7.4. Phenylmethylsulfonyl fluoride (PMSF) and sodium orthovanadate were added to the solution at a 1% (v/v) concentration. Samples were centrifuged at 800×g for 15 minutes at 4° C. The supernatant was collected and centrifuged at 11,700×g for 20 minutes, and the resulting supernatant was collected and stored at −20° C. until analysis.
Protein concentrations of each sample were calculated using a Bradford Assay. Samples were diluted into protein assay dye reagent concentrate (BioRad) and compared to bovine serum albumin (Sigma) of known concentration (1.0-0.1 mg/ml protein). […]
(§3) BDNF and synaptic markers were analysed using a one-way ANOVA followed by planned post hoc analysis to investigate differences between treatment groups for Prefrontal Cortex (BDNF & Synaptic markers) and Dorsal Hippocampus (BDNF) respectively.

[2] = tested on: scPCP treated rats; test: Novel object recognition (NOR) test in sub-chronic PCP treated rats; details: for Time spent exploring the novel versus familiar object in the retention trial (FIG. 6): 20-day treatment with compound of Formula I 10 & 30 mg/kg p.o.; for Time spent exploring the novel versus familiar object in the retention trial (FIG. 2): compound of Formula I 10 & 30 mg/kg p.o.
[3] = tested on: scPCP treated rats; test: Attentional set-shifting task (ASST) in sub-chronic PCP treated rats; details: for Number of trials to criterion in the EDS phase (FIG. 20): 21-day treatment, compared to scPCP group
[4] = tested on: parvalbumin interneurons; test: Parvalbumin immunohistochemistry in brains of scPCP-treated rats; format: in vivo, rat; details: 21-day treatment, 30 mg/kg p.o.
Method: Animals were culled by increasing concentration of carbon dioxide and death was confirmed by cervical dislocation. Brains were removed, frozen on dry ice and stored at −80° C. until analysis.
½ brains (one hemisphere) were randomly selected and processed for parvalbumin immunohistochemistry (IHC), quantified in the prefrontal cortex and dorsal hippocampus.
Sections (30 μm thickness) were washed in 1× PBS three times for five minutes each. Sections underwent heat-induced antigen retrieval in sodium citrate buffer (0.294% (w/v) sodium citrate, 0.07% (v/v) tween-20, 500 ml distilled water, pH adjusted to 6.0) for 30 minutes at 80° C. Unless otherwise stated, samples were washed twice in 1× PBS between each step.
Parvalbumin (PV) sections were processed for light microscopy. […]
Images were acquired on a 3D-Histech Pannoramic-250 microscope slide-scanner using a 20×/0.80 Plan Apochromat objective (Zeiss). […] For PV images, the region of interest was delineated, and the number of cell detections were manually counted within the CaseViewer software. Density was calculated by dividing the number of positive cell detections by the area of the region of interest.
Parvalbumin density in the Prefrontal Cortex and Dorsal Hippocampus were analysed using a repeated measure two-way ANOVA with region and treatment as fixed factors. […]

[5] = tested on: SNAP25; test: Simple Western of synaptic marker SNAP25 in prefrontal cortex of scPCP-treated rats; format: in vivo, rat; details: 21-day treatment; for SNAP25 levels in the total prefrontal cortex (FIG. 18): Example 3, vs scPCP; for scPCP-induced loss of SNAP25, relative protein level in prefrontal cortex (FIG. 21): Example 4
Method: as §1, §2
Protein concentrations of each sample were calculated using a Bradford Assay. Samples were diluted into protein assay dye reagent concentrate (BioRad) and compared to bovine serum albumin (Sigma) of known concentration (1.0-0.1 mg/ml protein). A standard curve was created using a simple linear regression. Standards and samples were run in triplicate. An outlying value from a triplicate was removed if the CV value was greater than 10%.
A WES plate was prepared following the provided instructions (SM-W004, ProteinSimple). Diluted samples were mixed with dithiothreitol and fluorescent master mix in an 8:1:1 ratio. Samples were denatured at 95° C. for five minutes. The samples, antibody diluent, primary antibody, secondary antibody and luminol-peroxide mix were loaded into appropriate wells. A biotinylated ladder, antibody diluent, streptavidin-HRP and luminol peroxide were also loaded. After brief centrifugation of the plate, wash buffer was added. The plate was then placed into the WES machine, whereby the load separation matrix is aspirated, and stacking matrix drawn up into each capillary. […] Finally, the chemiluminescent substrate was added into the capillaries, and the camera detected the levels of chemiluminescence at 9 different timepoints (1-512 seconds). The software then calculated the high dynamic range (HDR) of the peaks, which is calculated from the individual exposures and provides the largest dynamic range of the signal with the lowest background. The HDR peak is then used to calculate the area under the curve, which is analogous to the quantity of protein in the sample. […]
as §3

[6] = tested on: PSD95; test: Simple Western of synaptic marker PSD95 in prefrontal cortex of scPCP-treated rats; format: in vivo, rat; details: Example 4, 21-day treatment
Method: as §1
as §2, with “The supernatant was collected and centrifuged at 11,700×g for 20 minutes, and the resulting supernatant was collected and stored at −20° C. until analysis.” left out
Protein concentrations of each sample were calculated using a Bradford Assay. […]
A WES plate was prepared following the provided instructions (SM-W004, ProteinSimple). […] Finally, the chemiluminescent substrate was added into the capillaries, and the camera detected the levels of chemiluminescence at 9 different timepoints (1-512 seconds). The software then calculated the high dynamic range (HDR) of the peaks, which is calculated from the individual exposures and provides the largest dynamic range of the signal with the lowest background. The HDR peak is then used to calculate the area under the curve, which is analogous to the quantity of protein in the sample. […]

[7] = tested on: scPCP treated rats; test: Social interaction test in sub-chronic PCP treated rats; details: for Object exploration duration, inanimate object (FIG. 10): 21-day test article 10 & 30 mg/kg p.o.
[8] = tested on: scPCP treated rats; details: 7-day treatment; female rats; McLean et al., 2008, 2012; cited from earlier work
[9] = target: tropomyosin receptor kinase B (TrkB) (Homo sapiens, UniProt Q16620); details: known from the art; cited from earlier work
tropomyosin receptor kinase B (TrkB), sequence (Q16620 32-822, species assumed): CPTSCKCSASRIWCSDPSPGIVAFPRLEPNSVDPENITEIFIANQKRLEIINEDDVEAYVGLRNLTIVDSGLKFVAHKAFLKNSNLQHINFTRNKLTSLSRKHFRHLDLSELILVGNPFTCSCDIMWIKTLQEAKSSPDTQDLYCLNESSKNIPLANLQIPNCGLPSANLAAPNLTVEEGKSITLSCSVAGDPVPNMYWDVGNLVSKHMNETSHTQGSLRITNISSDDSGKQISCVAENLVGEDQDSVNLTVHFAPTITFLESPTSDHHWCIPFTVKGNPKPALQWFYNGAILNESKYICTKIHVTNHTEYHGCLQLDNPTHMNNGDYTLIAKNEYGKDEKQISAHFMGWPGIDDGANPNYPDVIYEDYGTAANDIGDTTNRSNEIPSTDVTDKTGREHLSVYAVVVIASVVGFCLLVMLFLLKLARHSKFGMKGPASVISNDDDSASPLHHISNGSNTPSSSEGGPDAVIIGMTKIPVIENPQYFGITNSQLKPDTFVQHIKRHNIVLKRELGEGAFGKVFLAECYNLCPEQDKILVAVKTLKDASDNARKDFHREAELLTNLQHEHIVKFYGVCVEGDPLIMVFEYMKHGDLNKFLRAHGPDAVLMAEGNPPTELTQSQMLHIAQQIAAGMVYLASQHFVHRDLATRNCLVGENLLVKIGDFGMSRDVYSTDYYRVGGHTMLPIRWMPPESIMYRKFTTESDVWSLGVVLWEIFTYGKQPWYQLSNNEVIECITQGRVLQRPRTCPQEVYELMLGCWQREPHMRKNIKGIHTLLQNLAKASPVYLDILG

[10] = acute risperidone 0.1 mg/kg i.p., scPCP rats
[11] = acute treatment, risperidone 0.1 mg/kg i.p., scPCP rats
[12] = acute risperidone 0.1 mg/kg i.p.
[13] = 20-day phase, scPCP rats, acute risperidone 0.1 mg/kg i.p.
[14] = acute phase, scPCP rats, risperidone 0.1 mg/kg i.p., 60 min prior to testing

N#Cc1ccc(-c2cc(=O)c3ccc4[nH]c(C(F)(F)F)nc4c3o2)cc1 [Compound of Formula I, 4-(6-oxo-2-(trifluoromethyl)-3,6-dihydrochromeno[7,8-d]imidazol-8-yl)benzonitrile]
Concentration of BDNF in the dorsal hippocampus (FIG. 22) [1]: increase the level of BDNF back to that of vehicle treated animals
Time spent exploring the novel versus familiar object in the retention trial (FIG. 6) [2, 10]: dose dependent statistically significant effect
Discrimination index (DI) (FIG. 7) ([2]; 20-day treatment, 30 mg/kg p.o., compared to scPCP animals without treatment): statistically significant increase
Time spent exploring the novel versus familiar object in the retention trial (FIG. 2) [2, 11]: not shown to have a difference
Number of trials to criterion in the EDS phase (FIG. 20) ([3]; 3 mg/kg p.o.): No significant reduction
Number of trials to criterion in the EDS phase (FIG. 20) ([3]; 10 mg/kg p.o.): near significant reductions
Number of trials to criterion in the EDS phase (FIG. 20) ([3]; 30 mg/kg p.o.): significant reductions
PV cell density in the total prefrontal cortex (FIG. 13) ([4]; compared to scPCP group): significantly increased
PV cell density in subregions of the prefrontal cortex (Cg1, PrL, IL) (FIG. 12) ([4]; vs scPCP): significantly increased
SNAP25 levels in the total prefrontal cortex (FIG. 18) ([5]; 10 mg/kg p.o.): increased significantly
SNAP25 levels in the total prefrontal cortex (FIG. 18) ([5]; 30 mg/kg p.o.): not
scPCP-induced loss of SNAP25, relative protein level in prefrontal cortex (FIG. 21) ([5]; 30 mg/kg p.o.): not
scPCP-induced loss of SNAP25, relative protein level in prefrontal cortex (FIG. 21) ([5]; 3 and 10 mg/kg p.o.): significantly alleviated
scPCP-induced loss of PSD95, relative protein level in prefrontal cortex (FIG. 21) ([6]; 30 mg/kg p.o.): not
scPCP-induced loss of PSD95, relative protein level in prefrontal cortex (FIG. 21) ([6]; 3 and 10 mg/kg p.o.): significantly alleviated
Object exploration duration, inanimate object (FIG. 10) [7, 12]: no differences
Sniffing duration, social impairment deficit (FIG. 9) ([7]; 21-day treatment, 10 & 30 mg/kg p.o.): able to rescue the social impairment deficit in the scPCP treated rats in a dose dependent manner

Cc1nc2n(c(=O)c1CCN1CCC(c3noc4cc(F)ccc34)CC1)CCCC2 [Risperidone, risperidone]
Acquisition total exploration time [2, 13]: 25.5 ± 3.4 s
Retention total exploration time [2, 13]: 17.8 ± 1.1 s
Time spent exploring the novel versus familiar object in the retention trial (FIG. 6) [2, 10]: statistically significant increase
Acquisition total exploration time [2, 14]: 22.81 ± 4.03 s
Retention total exploration time [2, 14]: 23.10 ± 2.92 s
Time spent exploring the novel versus familiar object in the retention trial (FIG. 2) [2, 11]: statistically significant increase
Discrimination index (DI) (FIG. 3) [2, 11]: higher discrimination index (DI) than those without treatment
scPCP-induced deficit in the EDS phase (FIG. 20) [3, 12]: significantly (P<0.01) reversed
Reversal of scPCP deficit in the extra-dimensional shift [8]: reversed
Object exploration duration, inanimate object (FIG. 10) [7, 12]: no differences
Sniffing duration (FIG. 9) ([7]; acute risperidone 0.1 mg/kg i.p., 60 min prior to testing): increase the amount of time the rat spent sniffing to a similar level as that observed by the higher dose of test article

O=c1cc(-c2ccccc2)oc2c(O)c(O)ccc12 [tropoflavin, 7,8-dihydroxyflavone]
Agonism of TrkB [9]: potent and selective agonist

O=C(CCCN1CCC(O)(c2ccc(Cl)cc2)CC1)c1ccc(F)cc1 [haloperidol]
Reversal of scPCP deficit in the extra-dimensional shift [8]: not

— patent US20260232639A1, “COMPOUNDS FOR USE IN THE TREATMENT OF SCHIZOPHRENIA” (ONTRACK THERAPEUTICS LIMITED, priority 2023, published 2026)
